Assay: size of spray dried nanoparticles by scanning electron microscopy (SEM)
Type: physicochemical
Details: dissolved in ethanol, spray dried with microfluidic nebulator, flow-focusing nebulization unit, four air inlets, 2.8 bar, 1 ml/h, collected 10 cm from outlet

average nanoparticle diameters: 24+/−8 nm
SMILES: Clc1ccccc1C(c1ccccc1)(c1ccccc1)n1ccnc1 [clotrimazole]

Reference: US20140284001A1, “SYSTEMS AND METHODS FOR SPRAY DRYING IN MICROFLUIDIC AND OTHER SYSTEMS” (President and Fellows Of Harvard College, priority 2012, published 2014)
